Results taken from ChEMBL document CHEMBL4177762, “Combined Approach of Backbone Amide Linking and On-Resin N-Methylation for the Synthesis of Bioactive and Metabolically Stable Peptides” (J Med Chem, 2018).
≈ marks a conversion by molar mass, not a printed value. Each block holds one molecule with its values, some of them ahead of it. Calls of active or inactive are those of the source. The rule behind the calls is not given here. Non-standard residues stand in square brackets, D forms with d. Residues, ends and D or L forms follow the SMILES beside them. *: point of attachment. NH(2-(1-naphthyl)ethyl) = c1ccc2c(CCN*)cccc2c1; Tryptamide = c1ccc2c(CCN*)c[nH]c2c1; NMeF = CN[C@@H](Cc1ccccc1)C(=O)O; NMeL = CN[C@@H](CC(C)C)C(=O)O; NHPhenethyl = c1ccc(CCN*)cc1; NMeV = CN[C@H](C(=O)O)C(C)C; NMeC = CN[C@@H](CS)C(=O)O

Assays:
Assay type in all cases: functional, organism-based
[1] = system: Trypanosoma brucei rhodesiense; assay: Antiprotozoal activity against trypomastigote stage of Trypanosoma brucei rhodesiense STIB900 after 72 hrs by Alamar Blue assay; settings: for IC50: STIB900, 72 h
Plasmodium falciparum = assay: Antiprotozoal activity against IEF stage of Plasmodium falciparum NF54 after 48 hrs by [3H]-hypoxanthine incorporation assay
Staphylococcus aureus [2] = assay: Antibacterial activity against methicillin-resistant Staphylococcus aureus ATCC 43300 assessed as growth inhibition up to 128 ug/ml
Escherichia coli = assay: Antibacterial activity against Escherichia coli ATCC 25922 assessed as growth inhibition up to 128 ug/ml
Micrococcus luteus = assay: Antibacterial activity against Micrococcus luteus ATCC 9341 assessed as growth inhibition up to 128 ug/ml
Enterococcus faecalis = assay: Antibacterial activity against Enterococcus faecalis ATCC 29212 assessed as growth inhibition up to 128 ug/ml
Pseudomonas aeruginosa = assay: Antibacterial activity against Pseudomonas aeruginosa ATCC 27853 assessed as growth inhibition up to 128 ug/ml
Staphylococcus aureus [3] = assay: Antibacterial activity against Staphylococcus aureus ATCC 29213 assessed as growth inhibition up to 128 ug/ml

SMILES: CN[C@@H](CC(C)C)C(=O)N(C)[C@@H](CC(C)C)C(=O)N(C)[C@@H](CC(C)C)C(=O)N(C)[C@@H](CC(C)C)C(=O)N(C)[C@@H](CC(C)C)C(=O)N(C)[C@@H](CC(C)C)C(=O)N(C)[C@@H](CC(C)C)C(=O)NCCc1ccccc1 (H-[NMeL][NMeL][NMeL][NMeL][NMeL][NMeL][NMeL]-NHPhenethyl)
Activity [1]: Active

SMILES: CC(C)C[C@@H](N)C(=O)N[C@H](CC(C)C)C(=O)N[C@H](CC(C)C)C(=O)N[C@H](CC(C)C)C(=O)NCCc1ccccc1
IC50 [1]: 1.4 to 2.1 µg/mL (≈ 2.44 to 3.66 µM)

SMILES: CN[C@@H](Cc1ccccc1)C(=O)N(C)[C@H](C(=O)N(C)[C@@H](CC(C)C)C(=O)N(C)[C@H](C(=O)NCCc1ccccc1)C(C)C)C(C)C (H-[NMeF][NMeV][NMeL][NMeV]-NHPhenethyl)
IC50 (Plasmodium falciparum): 0.1 µg/mL (≈ 0.157 µM)

SMILES: CN[C@H](C(=O)N(C)[C@H](C(=O)N(C)[C@H](C(=O)N(C)[C@H](C(=O)N(C)[C@H](C(=O)N(C)[C@@H](CC(C)C)C(=O)NCCc1ccccc1)C(C)C)C(C)C)C(C)C)C(C)C)C(C)C (H-[NMeV][NMeV][NMeV][NMeV][NMeV][NMeL]-NHPhenethyl)
growth inhibition (GI) (Staphylococcus aureus [2]): inactive
growth inhibition (GI) (Escherichia coli): inactive
growth inhibition (GI) (Micrococcus luteus): inactive
growth inhibition (GI) (Enterococcus faecalis): inactive
growth inhibition (GI) (Pseudomonas aeruginosa): inactive
growth inhibition (GI) (Staphylococcus aureus [3]): inactive

SMILES: CN[C@H](C(=O)N(C)[C@H](C(=O)N(C)[C@H](C(=O)N(C)[C@H](C(=O)N(C)[C@H](C(=O)NCCc1ccccc1)C(C)C)C(C)C)C(C)C)C(C)C)C(C)C (H-[NMeV][NMeV][NMeV][NMeV][NMeV]-NHPhenethyl)
Activity [1]: Active

SMILES: CC(C)C[C@@H](NC=O)C(=O)N[C@@H]1C(=O)N[C@H](Cc2ccccc2)C(=O)N[C@H](C(C)C)C(=O)N[C@@H](Cc2ccc(O)cc2)C(=O)N[C@@H](Cc2c[nH]c3ccccc23)C(=O)O[C@@H]1C
IC50 (Plasmodium falciparum): 0.995 µg/mL (≈ 1.19 µM)

SMILES: CCC(C)[C@H]1NC(=O)[C@@H](C(C)C)NC(=O)[C@H]([C@@H](C)O)NC(=O)[C@H](Cc2c[nH]c3ccccc23)NC(=O)[C@@H](NC(C)=O)[C@@H](C)OC(=O)[C@H](CC(C)C)NC1=O (some centres not stated)
IC50 [1]: 31.6 µg/mL (≈ 41.9 µM)

SMILES: CN[C@H](C(=O)N(C)[C@H](C(=O)N(C)[C@H](C(=O)N(C)[C@H](C(=O)N(C)[C@H](C(=O)N(C)[C@H](C(=O)NCCc1ccccc1)C(C)C)C(C)C)C(C)C)C(C)C)C(C)C)C(C)C (H-[NMeV][NMeV][NMeV][NMeV][NMeV][NMeV]-NHPhenethyl)
growth inhibition (GI) (Staphylococcus aureus [2]): inactive
growth inhibition (GI) (Escherichia coli): inactive
growth inhibition (GI) (Micrococcus luteus): inactive
growth inhibition (GI) (Enterococcus faecalis): inactive
growth inhibition (GI) (Pseudomonas aeruginosa): inactive
growth inhibition (GI) (Staphylococcus aureus [3]): inactive
Activity [1]: Active

SMILES: CN[C@@H](CC(C)C)C(=O)N(C)[C@@H](CC(C)C)C(=O)N(C)[C@@H](CC(C)C)C(=O)N(C)[C@@H](CC(C)C)C(=O)N(C)[C@@H](CC(C)C)C(=O)N(C)[C@@H](CC(C)C)C(=O)NCCc1ccccc1 (H-[NMeL][NMeL][NMeL][NMeL][NMeL][NMeL]-NHPhenethyl)
growth inhibition (GI) (Staphylococcus aureus [2]): inactive
growth inhibition (GI) (Escherichia coli): inactive
growth inhibition (GI) (Micrococcus luteus): inactive
growth inhibition (GI) (Enterococcus faecalis): inactive
growth inhibition (GI) (Pseudomonas aeruginosa): inactive
growth inhibition (GI) (Staphylococcus aureus [3]): inactive
Activity [1]: Active

SMILES: CN[C@H](C(=O)N(C)[C@H](C(=O)N(C)[C@H](C(=O)N(C)[C@@H](CS)C(=O)NCCc1ccccc1)C(C)C)C(C)C)C(C)C (H-[NMeV][NMeV][NMeV][NMeC]-NHPhenethyl)
IC50 [1]: 3 µg/mL (≈ 5.19 µM)

SMILES: CN[C@@H](Cc1ccccc1)C(=O)N(C)[C@@H](Cc1ccccc1)C(=O)N(C)[C@@H](Cc1ccccc1)C(=O)N(C)[C@@H](Cc1ccccc1)C(=O)NCCc1ccccc1 (H-[NMeF][NMeF][NMeF][NMeF]-NHPhenethyl)
Activity [1]: Active

SMILES: CN[C@@H](Cc1ccccc1)C(=O)N(C)[C@@H](Cc1ccccc1)C(=O)N(C)[C@@H](Cc1ccccc1)C(=O)N(C)[C@@H](Cc1ccccc1)C(=O)N(C)[C@@H](Cc1ccccc1)C(=O)N(C)[C@@H](Cc1ccccc1)C(=O)NCCc1ccccc1 (H-[NMeF][NMeF][NMeF][NMeF][NMeF][NMeF]-NHPhenethyl)
Activity [1]: Active

SMILES: CN[C@H](C(=O)N(C)[C@H](C(=O)N(C)[C@H](C(=O)N(C)[C@H](C(=O)N(C)[C@H](C(=O)N(C)[C@H](C(=O)N(C)[C@H](C(=O)NCCc1ccccc1)C(C)C)C(C)C)C(C)C)C(C)C)C(C)C)C(C)C)C(C)C (H-[NMeV][NMeV][NMeV][NMeV][NMeV][NMeV][NMeV]-NHPhenethyl)
Activity [1]: Active

SMILES: CN[C@@H](CC(C)C)C(=O)N(C)[C@@H](CC(C)C)C(=O)N(C)[C@@H](CC(C)C)C(=O)N(C)[C@@H](CC(C)C)C(=O)N(C)[C@@H](CC(C)C)C(=O)NCCc1ccccc1
Activity [1]: Active

SMILES: CN[C@H](C(=O)N(C)[C@H](C(=O)N(C)[C@H](C(=O)N(C)[C@H](C(=O)N(C)[C@H](C(=O)N(C)[C@@H](Cc1ccccc1)C(=O)NCCc1ccccc1)C(C)C)C(C)C)C(C)C)C(C)C)C(C)C (H-[NMeV][NMeV][NMeV][NMeV][NMeV][NMeF]-NHPhenethyl)
growth inhibition (GI) (Staphylococcus aureus [2]): inactive
growth inhibition (GI) (Escherichia coli): inactive
growth inhibition (GI) (Micrococcus luteus): inactive
growth inhibition (GI) (Enterococcus faecalis): inactive
growth inhibition (GI) (Pseudomonas aeruginosa): inactive
growth inhibition (GI) (Staphylococcus aureus [3]): inactive

Results, then the molecule that gave them:

IC50 [1]: 1.4 to 2.1 µg/mL (≈ 1.85 to 2.77 µM)
SMILES: CN[C@@H](CC(C)C)C(=O)N(C)[C@@H](CC(C)C)C(=O)N(C)[C@@H](CC(C)C)C(=O)N(C)[C@@H](CC(C)C)C(=O)N(C)[C@H](CC(C)C)C(=O)NCCc1ccccc1

IC50 [1]: 1.4 to 2.1 µg/mL (≈ 2.22 to 3.33 µM)
SMILES: CN[C@@H](CC(C)C)C(=O)N(C)[C@H](CC(C)C)C(=O)N(C)[C@@H](CC(C)C)C(=O)N(C)[C@@H](CC(C)C)C(=O)NCCc1ccccc1

IC50 [1]: 7.5 µg/mL (≈ 11.2 µM)
SMILES: CN[C@@H](CC(C)C)C(=O)N(C)[C@@H](CC(C)C)C(=O)N(C)[C@@H](CC(C)C)C(=O)N(C)[C@@H](CS)C(=O)NCCc1cccc2ccccc12 (H-[NMeL][NMeL][NMeL][NMeC]-{NH(2-(1-naphthyl)ethyl)})

IC50 (Plasmodium falciparum): 0.6 µg/mL (≈ 0.897 µM)
SMILES: CN[C@@H](CC(C)C)C(=O)N(C)[C@@H](CC(C)C)C(=O)N(C)[C@@H](CC(C)C)C(=O)N(C)[C@@H](CC(C)C)C(=O)NCCc1c[nH]c2ccccc12 (H-[NMeL][NMeL][NMeL][NMeL]-Tryptamide)

IC50 [1]: 1.4 to 2.1 µg/mL (≈ 2.33 to 3.49 µM)
SMILES: CC(C)C[C@@H](N)C(=O)N[C@@H](CC(C)C)C(=O)N(C)[C@@H](CC(C)C)C(=O)N(C)[C@@H](CC(C)C)C(=O)NCCc1ccccc1

IC50 [1]: 1.4 to 2.1 µg/mL (≈ 2.22 to 3.33 µM)
SMILES: CN[C@H](CC(C)C)C(=O)N(C)[C@H](CC(C)C)C(=O)N(C)[C@H](CC(C)C)C(=O)N(C)[C@H](CC(C)C)C(=O)NCCc1ccccc1

IC50 [1]: 1 µg/mL (≈ 1.47 µM)
SMILES: CN[C@@H](CC(C)C)C(=O)N(C)[C@@H](CC(C)C)C(=O)N(C)[C@@H](CC(C)C)C(=O)N(C)[C@@H](CC(C)C)C(=O)NCCc1cccc2ccccc12 (H-[NMeL][NMeL][NMeL][NMeL]-{NH(2-(1-naphthyl)ethyl)})

IC50 [1]: 1.4 to 2.1 µg/mL (≈ 2.22 to 3.33 µM)
SMILES: CN[C@H](CC(C)C)C(=O)N(C)[C@@H](CC(C)C)C(=O)N(C)[C@@H](CC(C)C)C(=O)N(C)[C@@H](CC(C)C)C(=O)NCCc1ccccc1

IC50 [1]: 5.6 µg/mL (≈ 9.03 µM)
SMILES: CN[C@@H](CC(C)C)C(=O)N(C)[C@@H](CC(C)C)C(=O)N(C)[C@@H](CC(C)C)C(=O)N(C)[C@@H](CS)C(=O)NCCc1ccccc1 (H-[NMeL][NMeL][NMeL][NMeC]-NHPhenethyl)

IC50 [1]: 17.5 µg/mL (≈ 27.8 µM)
SMILES: CN[C@@H](CC(C)C)C(=O)N(C)[C@@H](CC(C)C)C(=O)N(C)[C@H](CC(C)C)C(=O)N(C)[C@@H](CC(C)C)C(=O)NCCc1ccccc1
